Test results from paper PMC5218480 (PLoS ONE, 2017).

Test system: MV-4-11 cells
Assay: Gene expression microarray analysis (Affymetrix PrimeView) and GSEA
Format: cell-based, human
Design: RFU PODN (11730768_x_at) / Fold change /veh PODN (11730768_x_at) / RFU LINC00158 (11744669_a_at) / Fold change /veh LINC00158 (11744669_a_at) / RFU DUSP10 (11751237_a_at) / Fold change /veh DUSP10 (11751237_a_at) / RFU ID3 (11757404_x_at) / Fold change /veh ID3 (11757404_x_at) / RFU PLEKHG5 (11737974_s_at) / Fold change /veh PLEKHG5 (11737974_s_at) / RFU LRRC4B (11730491_at) / Fold change /veh LRRC4B (11730491_at) / RFU GIMAP4 (11747438_a_at) / Fold change /veh GIMAP4 (11747438_a_at) / RFU KRT8 (11758183_x_at) / Fold change /veh KRT8 (11758183_x_at) / RFU CNN1 (11734310_a_at) / Fold change /veh CNN1 (11734310_a_at) / RFU VPS37D (11726825_at) / Fold change /veh VPS37D (11726825_at) / RFU C10orf10 (11716522_x_at) / Fold change /veh C10orf10 (11716522_x_at) / RFU KIR2DL2 /// KIR2DL4 /// KIR2DL5A /// KIR2DL5B /// KIR2DS1 /// KIR2DS2 /// KIR2DS3 /// KIR2DS4 /// KIR3DL3 /// KIR3DL3 /// KIR3DS1 (11738374_at) / Fold change /veh KIR2DL2 /// KIR2DL4 /// KIR2DL5A /// KIR2DL5B /// KIR2DS1 /// KIR2DS2 /// KIR2DS3 /// KIR2DS4 /// KIR3DL3 /// KIR3DL3 /// KIR3DS1 (11738374_at) / RFU C1QL1 (11718748_at) / Fold change /veh C1QL1 (11718748_at) / RFU TMPRSS4 (11747572_a_at) / Fold change /veh TMPRSS4 (11747572_a_at) / RFU HAMP (11756126_x_at) / Fold change /veh HAMP (11756126_x_at) / RFU RNFT2 (11725882_a_at) / Fold change /veh RNFT2 (11725882_a_at) / RFU NR4A2 (11747474_a_at) / Fold change /veh NR4A2 (11747474_a_at) / RFU ABCC12 (11746883_a_at) / Fold change /veh ABCC12 (11746883_a_at) / RFU TMEM136 (11760407_x_at) / Fold change /veh TMEM136 (11760407_x_at) / RFU CLDN22 /// WWC2 (11732394_at) / Fold change /veh CLDN22 /// WWC2 (11732394_at) / RFU HLA-DPB1 (11760878_x_at) / Fold change /veh HLA-DPB1 (11760878_x_at) / RFU SPINT1 (11716480_a_at) / Fold change /veh SPINT1 (11716480_a_at) / RFU GAP43 (11754022_s_at) / Fold change /veh GAP43 (11754022_s_at) / RFU A4GNT (11735810_at) / Fold change /veh A4GNT (11735810_at) / RFU PRB3 (11715151_x_at) / Fold change /veh PRB3 (11715151_x_at) / RFU TUBB4B (11761932_at) / Fold change /veh TUBB4B (11761932_at) / RFU CAPN14 (11732068_a_at) / Fold change /veh CAPN14 (11732068_a_at) / RFU TMCC2 (11721928_a_at) / Fold change /veh TMCC2 (11721928_a_at) / RFU IRGQ (11745062_a_at) / Fold change /veh IRGQ (11745062_a_at) / RFU FAM174B (11720279_a_at) / Fold change /veh FAM174B (11720279_a_at) / RFU TMPRSS4 (11748680_a_at) / Fold change /veh TMPRSS4 (11748680_a_at) / RFU FAM212B (11763350_a_at) / Fold change /veh FAM212B (11763350_a_at) / RFU PLEKHG5 (11743358_a_at) / Fold change /veh PLEKHG5 (11743358_a_at) / RFU ZSCAN30 (11745921_a_at) / Fold change /veh ZSCAN30 (11745921_a_at) / RFU CMKLR1 (11741424_a_at) / Fold change /veh CMKLR1 (11741424_a_at) / RFU LOC101060620 /// MAPK8IP1 (11723275_at) / Fold change /veh LOC101060620 /// MAPK8IP1 (11723275_at) / RFU SPTSSB (11747773_x_at) / Fold change /veh SPTSSB (11747773_x_at) / RFU PRSS12 (11739890_at) / Fold change /veh PRSS12 (11739890_at) / RFU BIN1 (11741810_x_at) / Fold change /veh BIN1 (11741810_x_at) / RFU WNT11 (11732464_a_at) / Fold change /veh WNT11 (11732464_a_at) / RFU C10orf10 (11716521_a_at) / Fold change /veh C10orf10 (11716521_a_at) / RFU C5orf56 (11738089_at) / Fold change /veh C5orf56 (11738089_at) / RFU CYB561 (11721691_x_at) / Fold change /veh CYB561 (11721691_x_at) / RFU ANKRD19P (11752326_a_at) / Fold change /veh ANKRD19P (11752326_a_at) / RFU OR2T12 /// OR2T33 /// OR2T8 (11738714_s_at) / Fold change /veh OR2T12 /// OR2T33 /// OR2T8 (11738714_s_at) / RFU VCAN (11748164_a_at) / Fold change /veh VCAN (11748164_a_at) / RFU JSRP1 (11732532_at) / Fold change /veh JSRP1 (11732532_at) / RFU KRTAP10-11 (11738290_x_at) / Fold change /veh KRTAP10-11 (11738290_x_at) / RFU MYO3A (11730013_a_at) / Fold change /veh MYO3A (11730013_a_at) / RFU EBF3 (11725865_a_at) / Fold change /veh EBF3 (11725865_a_at) / RFU CAMK2N1 (11719241_x_at) / Fold change /veh CAMK2N1 (11719241_x_at) / RFU C5orf56 (11738088_a_at) / Fold change /veh C5orf56 (11738088_a_at) / RFU OLFML3 (11715873_a_at) / Fold change /veh OLFML3 (11715873_a_at) / RFU LOC100653217 /// NTM (11731650_a_at) / Fold change /veh LOC100653217 /// NTM (11731650_a_at) / RFU MAPK11 (11762145_a_at) / Fold change /veh MAPK11 (11762145_a_at) / RFU FIZ1 (11724087_x_at) / Fold change /veh FIZ1 (11724087_x_at) / RFU OASL (11726364_x_at) / Fold change /veh OASL (11726364_x_at) / RFU SOX15 (11748057_x_at) / Fold change /veh SOX15 (11748057_x_at) / RFU CD79A (11719716_a_at) / Fold change /veh CD79A (11719716_a_at) / RFU HIST1H1D (11736915_at) / Fold change /veh HIST1H1D (11736915_at) / RFU CASKIN2 (11723855_a_at) / Fold change /veh CASKIN2 (11723855_a_at) / RFU LOC730098 (11760151_x_at) / Fold change /veh LOC730098 (11760151_x_at) / RFU OR4N2 (11742367_at) / Fold change /veh OR4N2 (11742367_at) / RFU PRRT2 (11749266_a_at) / Fold change /veh PRRT2 (11749266_a_at) / RFU SNX32 (11753110_a_at) / Fold change /veh SNX32 (11753110_a_at) / RFU CDHR5 (11726645_a_at) / Fold change /veh CDHR5 (11726645_a_at) / RFU RCAN1 (11760418_a_at) / Fold change /veh RCAN1 (11760418_a_at) / RFU FAM167A (11723789_a_at) / Fold change /veh FAM167A (11723789_a_at) / RFU FAM26E (11764081_at) / Fold change /veh FAM26E (11764081_at) / RFU ISYNA1 (11749810_s_at) / Fold change /veh ISYNA1 (11749810_s_at) / RFU ACY1 (11761880_at) / Fold change /veh ACY1 (11761880_at) / RFU 11764098_at / Fold change /veh 11764098_at / RFU SAMD14 (11745864_x_at) / Fold change /veh SAMD14 (11745864_x_at) / RFU NPB (11741838_a_at) / Fold change /veh NPB (11741838_a_at) / RFU TMPRSS6 (11731388_a_at) / Fold change /veh TMPRSS6 (11731388_a_at) / RFU KRTAP10-2 (11738614_at) / Fold change /veh KRTAP10-2 (11738614_at) / RFU ARHGAP8 /// PRR5-ARHGAP8 (11727945_x_at) / Fold change /veh ARHGAP8 /// PRR5-ARHGAP8 (11727945_x_at) / RFU KRTAP5-7 /// NADSYN1 (11734609_at) / Fold change /veh KRTAP5-7 /// NADSYN1 (11734609_at) / RFU RASL12 (11751679_a_at) / Fold change /veh RASL12 (11751679_a_at) / RFU CDKN2B (11736163_a_at) / Fold change /veh CDKN2B (11736163_a_at) / RFU PRF1 (11729649_at) / Fold change /veh PRF1 (11729649_at) / RFU, ZNF638 /// ZNF638-IT1 / Fold change vs veh, ZNF638 /// ZNF638-IT1 / RFU, PANK3 / Fold change vs veh, PANK3 / RFU, SH3YL1 / Fold change vs veh, SH3YL1 / RFU, ZEB2 / Fold change vs veh, ZEB2 / RFU, NRIP1 / Fold change vs veh, NRIP1 / RFU, PTTG1IP / Fold change vs veh, PTTG1IP / RFU, CAPN2 / Fold change vs veh, CAPN2 / RFU, MED14 / Fold change vs veh, MED14 / RFU, SNORA58 / Fold change vs veh, SNORA58 / RFU, C1orf63 / Fold change vs veh, C1orf63 / RFU, LRRFIP1 / Fold change vs veh, LRRFIP1 / RFU, NDUFAF7 / Fold change vs veh, NDUFAF7 / RFU, SLC12A2 / Fold change vs veh, SLC12A2 / RFU, IBTK / Fold change vs veh, IBTK / RFU, ESF1 / Fold change vs veh, ESF1 / Fold change vs veh, TMEM50B / RFU, TAOK1 / Fold change vs veh, TAOK1 / RFU, ACBD3 / Fold change vs veh, ACBD3 / RFU, TMA16 / Fold change vs veh, TMA16 / RFU, RWDD3 / Fold change vs veh, RWDD3 / RFU, BCAT1 / Fold change vs veh, BCAT1 / RFU, EDEM3 / Fold change vs veh, EDEM3 / RFU, TMEM33 / Fold change vs veh, TMEM33 / RFU, WDR75 / Fold change vs veh, WDR75 / RFU, AHCTF1 / Fold change vs veh, AHCTF1 / RFU, TFRC / Fold change vs veh, TFRC / RFU, ZDHHC17 / Fold change vs veh, ZDHHC17 / RFU, NOM1 / Fold change vs veh, NOM1 / RFU, ARL8B / Fold change vs veh, ARL8B / RFU, ZBTB11 / Fold change vs veh, ZBTB11 / RFU, TAMM41 / Fold change vs veh, TAMM41 / RFU, KIAA1704 /// LOC100996395 / Fold change vs veh, KIAA1704 /// LOC100996395 / RFU, ING1 / Fold change vs veh, ING1 / RFU, TRMT61B / Fold change vs veh, TRMT61B / RFU, FUBP3 / Fold change vs veh, FUBP3 / RFU, TP53 / Fold change vs veh, TP53 / RFU, TNKS2 / Fold change vs veh, TNKS2 / RFU, ZFP14 / Fold change vs veh, ZFP14 / RFU, ACTR2 / Fold change vs veh, ACTR2 / RFU, PPP3R1 / Fold change vs veh, PPP3R1 / RFU, PIK3R1 / Fold change vs veh, PIK3R1 / RFU, HNRNPA1 / Fold change vs veh, HNRNPA1 / RFU, RNF170 / Fold change vs veh, RNF170 / RFU, ZNF28 / Fold change vs veh, ZNF28 / RFU, RNGTT / Fold change vs veh, RNGTT / RFU, OGT / Fold change vs veh, OGT / RFU, BRD1 / Fold change vs veh, BRD1 / RFU, MARS / Fold change vs veh, MARS / RFU, ZNF655 / Fold change vs veh, ZNF655 / RFU, FAHD1 / Fold change vs veh, FAHD1 / RFU, BDP1 / Fold change vs veh, BDP1 / RFU, LRRCC1 / Fold change vs veh, LRRCC1 / RFU, ARID1A / Fold change vs veh, ARID1A / RFU, ZNF146 / Fold change vs veh, ZNF146 / RFU, ZNF330 / Fold change vs veh, ZNF330 / RFU, GPN3 / Fold change vs veh, GPN3 / RFU, C9orf123 / Fold change vs veh, C9orf123 / RFU, N4BP2L2 / Fold change vs veh, N4BP2L2 / RFU, ARFIP1 / Fold change vs veh, ARFIP1 / RFU, FAM179B / Fold change vs veh, FAM179B / RFU, BCL10 / Fold change vs veh, BCL10 / RFU, UHRF1BP1L / Fold change vs veh, UHRF1BP1L / RFU, BET1 / Fold change vs veh, BET1 / RFU, CNOT2 / Fold change vs veh, CNOT2 / RFU, ZNF268 / Fold change vs veh, ZNF268 / Fold change vs veh, ZNF507 / RFU, DGCR2 / Fold change vs veh, DGCR2 / RFU, WDSUB1 / Fold change vs veh, WDSUB1 / Fold change vs veh, HSP90B1 /// MIR3652 / RFU, ADSS / Fold change vs veh, ADSS / RFU, GK / Fold change vs veh, GK / RFU, ZNF148 / Fold change vs veh, ZNF148 / RFU, TAF9 / Fold change vs veh, TAF9 / RFU, SLC1A5 / Fold change vs veh, SLC1A5 / RFU, SLMO2 / Fold change vs veh, SLMO2 / RFU, ABCC4 / Fold change vs veh, ABCC4 / RFU, LOC101060439 /// RAP1B / Fold change vs veh, LOC101060439 /// RAP1B / RFU, RFX7 / Fold change vs veh, RFX7 / RFU, GTPBP10 / Fold change vs veh, GTPBP10 / RFU, CNEP1R1 / Fold change vs veh, CNEP1R1 / RFU, BIVM-ERCC5 /// ERCC5 / Fold change vs veh, BIVM-ERCC5 /// ERCC5 / RFU, ILF3 / Fold change vs veh, ILF3 / RFU 11762660_at / Fold change /veh 11762660_at / RFU VCAN (11757783_s_at) / Fold change /veh VCAN (11757783_s_at) / RFU DDX43 (11728927_at) / Fold change /veh DDX43 (11728927_at) / RFU KRT8 (11758188_x_at) / Fold change /veh KRT8 (11758188_x_at) / RFU NKD1 (11759106_at) / Fold change /veh NKD1 (11759106_at) / RFU SRD5A1 (11742802_a_at) / Fold change /veh SRD5A1 (11742802_a_at) / RFU TPSAB1 /// TPSB2 (11721975_s_at) / Fold change /veh TPSAB1 /// TPSB2 (11721975_s_at) / RFU GSTM3 (11746129_a_at) / Fold change /veh GSTM3 (11746129_a_at) / RFU IL23R (11737362_x_at) / Fold change /veh IL23R (11737362_x_at) / RFU TMEM51 (11727254_a_at) / Fold change /veh TMEM51 (11727254_a_at) / RFU PIWIL2 (11732686_x_at) / Fold change /veh PIWIL2 (11732686_x_at) / RFU ORM1 (11744905_x_at) / Fold change /veh ORM1 (11744905_x_at) / RFU CCDC152 (11743942_at) / Fold change /veh CCDC152 (11743942_at) / RFU ECM1 (11717891_a_at) / Fold change /veh ECM1 (11717891_a_at) / RFU IL23R (11748794_a_at) / Fold change /veh IL23R (11748794_a_at) / RFU TNFAIP8L3 (11732012_x_at) / Fold change /veh TNFAIP8L3 (11732012_x_at) / RFU MBOAT4 (11741988_at) / Fold change /veh MBOAT4 (11741988_at) / RFU 11764193_at / Fold change /veh 11764193_at / RFU TMEM53 (11763286_at) / Fold change /veh TMEM53 (11763286_at) / RFU MAGEB2 (11727129_at) / Fold change /veh MAGEB2 (11727129_at) / RFU TMEM200A (11744735_a_at) / Fold change /veh TMEM200A (11744735_a_at) / RFU CCDC152 (11751479_a_at) / Fold change /veh CCDC152 (11751479_a_at) / RFU FAM211A (11726209_a_at) / Fold change /veh FAM211A (11726209_a_at) / RFU RGS16 (11746705_a_at) / Fold change /veh RGS16 (11746705_a_at) / RFU VCAN (11755009_s_at) / Fold change /veh VCAN (11755009_s_at) / RFU RHOB (11743442_s_at) / Fold change /veh RHOB (11743442_s_at) / RFU RGS16 (11720943_a_at) / Fold change /veh RGS16 (11720943_a_at) / RFU RGS16 (11720944_at) / Fold change /veh RGS16 (11720944_at) / RFU, VPS4B / Fold change vs veh, VPS4B / RFU, CREB1 / Fold change vs veh, CREB1 / RFU, DNAJC13 / Fold change vs veh, DNAJC13 / RFU, GNAQ / Fold change vs veh, GNAQ / RFU, CDK5R1 / Fold change vs veh, CDK5R1 / RFU, ZRANB3 / Fold change vs veh, ZRANB3 / RFU, CUL4A / Fold change vs veh, CUL4A / RFU, CCNY / Fold change vs veh, CCNY / RFU, UFL1 / Fold change vs veh, UFL1 / RFU, COG3 / Fold change vs veh, COG3 / RFU, DIAPH2 / Fold change vs veh, DIAPH2 / RFU, SKA2 / Fold change vs veh, SKA2 / RFU, AFF3 / Fold change vs veh, AFF3 / RFU, LMF1 / Fold change vs veh, LMF1 / RFU, IPO11 / Fold change vs veh, IPO11 / RFU, DFFB / Fold change vs veh, DFFB / RFU, FOXP1 / Fold change vs veh, FOXP1 / RFU, CARD8 / Fold change vs veh, CARD8 / RFU, STRN3 / Fold change vs veh, STRN3 / RFU, ADK / Fold change vs veh, ADK / RFU, RASSF2 / Fold change vs veh, RASSF2 / RFU, WIPF1 / Fold change vs veh, WIPF1 / RFU, LARP1B / Fold change vs veh, LARP1B / RFU, RASA1 / Fold change vs veh, RASA1 / RFU, RB1 / Fold change vs veh, RB1 / RFU, PPFIA1 / Fold change vs veh, PPFIA1 / RFU, MAT2A / Fold change vs veh, MAT2A / RFU, CCT5 / Fold change vs veh, CCT5 / RFU, WDR92 / Fold change vs veh, WDR92 / RFU, CUX1 / Fold change vs veh, CUX1 / RFU, TTC7A / Fold change vs veh, TTC7A / RFU, TMEM135 / Fold change vs veh, TMEM135 / RFU, DEPTOR / Fold change vs veh, DEPTOR / RFU, CPM / Fold change vs veh, CPM / RFU, DNAJB6 / Fold change vs veh, DNAJB6 / RFU, CACNA2D3 / Fold change vs veh, CACNA2D3 / RFU, DTX4 / Fold change vs veh, DTX4 / RFU, TFCP2 / Fold change vs veh, TFCP2 / RFU, GMCL1 /// GMCL1P1 / Fold change vs veh, GMCL1 /// GMCL1P1 / RFU, AEBP2 / Fold change vs veh, AEBP2 / RFU, SNHG1 /// SNORD22 /// SNORD25 /// SNORD26 /// SNORD27 /// SNORD28 /// SNORD29 /// SNORD31 / Fold change vs veh, SNHG1 /// SNORD22 /// SNORD25 /// SNORD26 /// SNORD27 /// SNORD28 /// SNORD29 /// SNORD31 / Fold change (Aza/veh), C12orf56 (ProbeSet 11735607_a_at) / Fold change (ACY-1035/veh), C12orf56 (ProbeSet 11735607_a_at) / Fold change (Aza/veh), FGFR1OP (ProbeSet 11751329_s_at) / Fold change (ACY-1035/veh), FGFR1OP (ProbeSet 11751329_s_at) / Fold change (Aza/veh), VPS36 (ProbeSet 11739960_a_at) / Fold change (ACY-1035/veh), VPS36 (ProbeSet 11739960_a_at) / RFU SYPL1 (11715823_x_at) / Fold change /veh SYPL1 (11715823_x_at) / RFU IGFBP7 (11715501_s_at) / Fold change /veh IGFBP7 (11715501_s_at) / RFU REEP3 (11722064_at) / Fold change /veh REEP3 (11722064_at) / RFU IGLL1 (11728026_x_at) / Fold change /veh IGLL1 (11728026_x_at): dose or concentration left out as unconfirmed
Settings: ProbeSet 11731093_s_at; LIST B

## Nc1ccc(-c2cccs2)cc1NC(=O)c1ccc2c(c1)cc(C1CC1)n2CCN1CCOCC1 [ACY-1035]
  RFU, BRD1: 190.44 RFU
